Reference: ChEMBL document CHEMBL4507293 (2021)

What was measured:
[1] = target: cGMP-dependent 3',5'-cyclic phosphodiesterase (Homo sapiens, UniProt O00408); assay: Biochemical assay (PDE2A)
[2] = target: AP2-associated protein kinase 1 (Homo sapiens) (UniProt Q2M2I8); details: Compound concentration 100.0 nM
[3] = tested on: Tyrosine-protein kinase ABL1 (Homo sapiens), P00519 [Y253F]; details: Compound concentration 100.0 nM
[4] = target: Atypical kinase COQ8A, mitochondrial (Homo sapiens) (UniProt Q8NI60); details: Compound concentration 100.0 nM
[5] = target: Ankyrin repeat and protein kinase domain-containing protein 1 (Homo sapiens) (UniProt Q8NFD2); details: Compound concentration 100.0 nM
[6] = target: Calcium/calmodulin-dependent protein kinase type II subunit beta (Homo sapiens) (UniProt Q13554); details: Compound concentration 100.0 nM
Calcium/calmodulin-dependent protein kinase type II subunit beta (Homo sapiens), sequence (Q13554 whole entry): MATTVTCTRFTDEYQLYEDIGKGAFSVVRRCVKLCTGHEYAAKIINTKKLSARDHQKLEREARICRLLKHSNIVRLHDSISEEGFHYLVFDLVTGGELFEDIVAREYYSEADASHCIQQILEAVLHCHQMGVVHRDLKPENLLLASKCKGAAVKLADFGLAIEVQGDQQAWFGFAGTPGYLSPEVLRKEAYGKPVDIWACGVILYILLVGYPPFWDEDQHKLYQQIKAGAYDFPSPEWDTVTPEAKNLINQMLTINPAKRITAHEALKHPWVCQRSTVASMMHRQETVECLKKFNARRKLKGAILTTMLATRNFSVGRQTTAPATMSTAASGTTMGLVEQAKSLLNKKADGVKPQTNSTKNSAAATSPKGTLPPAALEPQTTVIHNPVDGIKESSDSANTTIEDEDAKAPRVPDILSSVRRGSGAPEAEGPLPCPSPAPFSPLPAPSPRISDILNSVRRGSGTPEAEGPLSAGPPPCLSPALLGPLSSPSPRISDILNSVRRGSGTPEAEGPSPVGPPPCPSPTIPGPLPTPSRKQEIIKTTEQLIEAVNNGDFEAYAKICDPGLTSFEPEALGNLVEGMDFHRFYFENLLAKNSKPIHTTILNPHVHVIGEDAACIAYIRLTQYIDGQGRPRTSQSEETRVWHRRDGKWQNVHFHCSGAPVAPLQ

[7] = target: Cyclin-dependent kinase 11B (Homo sapiens) (UniProt P21127); details: Compound concentration 100.0 nM
Cyclin-dependent kinase 11B (Homo sapiens), sequence (P21127 whole entry): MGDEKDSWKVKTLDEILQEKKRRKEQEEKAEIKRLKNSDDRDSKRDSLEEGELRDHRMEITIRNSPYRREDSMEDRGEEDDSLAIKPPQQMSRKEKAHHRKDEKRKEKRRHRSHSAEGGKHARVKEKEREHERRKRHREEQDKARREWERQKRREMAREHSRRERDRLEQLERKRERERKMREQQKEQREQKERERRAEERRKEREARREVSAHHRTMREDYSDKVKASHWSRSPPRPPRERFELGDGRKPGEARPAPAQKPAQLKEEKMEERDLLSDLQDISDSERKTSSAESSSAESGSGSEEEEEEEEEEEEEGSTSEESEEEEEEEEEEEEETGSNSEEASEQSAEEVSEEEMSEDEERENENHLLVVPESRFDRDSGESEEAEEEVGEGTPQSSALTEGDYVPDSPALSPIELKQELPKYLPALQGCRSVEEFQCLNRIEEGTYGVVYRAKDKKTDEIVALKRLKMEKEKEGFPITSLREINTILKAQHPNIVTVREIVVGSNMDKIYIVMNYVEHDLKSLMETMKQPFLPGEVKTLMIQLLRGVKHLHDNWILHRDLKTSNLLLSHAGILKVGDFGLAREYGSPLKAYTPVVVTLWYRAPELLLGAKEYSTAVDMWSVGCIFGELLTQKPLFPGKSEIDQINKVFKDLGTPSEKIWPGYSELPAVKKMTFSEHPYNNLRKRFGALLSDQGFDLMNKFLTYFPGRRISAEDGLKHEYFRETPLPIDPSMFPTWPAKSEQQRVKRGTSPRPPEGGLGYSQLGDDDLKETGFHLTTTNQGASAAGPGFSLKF

[8] = target: Cyclin-dependent kinase 4 (Homo sapiens) (UniProt P11802); details: Compound concentration 100.0 nM
[9] = target: Cyclin-dependent kinase 8 (Homo sapiens) (UniProt P49336); details: Compound concentration 100.0 nM
[10] = target: Serine/threonine-protein kinase DCLK2 (Homo sapiens) (UniProt Q8N568); details: Compound concentration 100.0 nM
[11] = target: Epidermal growth factor receptor (Homo sapiens) (UniProt P00533); details: Compound concentration 100.0 nM
[12] = tested on: Epidermal growth factor receptor (Homo sapiens), P00533 [L858R,T790M]; details: Compound concentration 100.0 nM
[13] = target: Receptor tyrosine-protein kinase erbB-2 (Homo sapiens) (UniProt P04626); details: Compound concentration 100.0 nM
[14] = target: Serine/threonine-protein kinase/endoribonuclease IRE1 (Homo sapiens) (UniProt O75460); details: Compound concentration 100.0 nM
[15] = target: Beta-adrenergic receptor kinase 1 (Homo sapiens) (UniProt P25098); details: Compound concentration 100.0 nM
[16] = target: Insulin receptor-related protein (Homo sapiens) (UniProt P14616); details: Compound concentration 100.0 nM
[17] = target: Interleukin-1 receptor-associated kinase 3 (Homo sapiens) (UniProt Q9Y616); details: Compound concentration 100.0 nM
[18] = target: Tyrosine-protein kinase JAK1 (Homo sapiens) (UniProt P23458); details: Compound concentration 100.0 nM
[19] = target: Leucine-rich repeat serine/threonine-protein kinase 2 (Homo sapiens) (UniProt Q5S007); details: Compound concentration 100.0 nM
[20] = target: Mitogen-activated protein kinase kinase kinase 1 (Homo sapiens) (UniProt Q13233); details: Compound concentration 100.0 nM
[21] = target: MAP kinase-activated protein kinase 2 (Homo sapiens) (UniProt P49137); details: Compound concentration 100.0 nM
MAP kinase-activated protein kinase 2 (Homo sapiens), sequence (P49137 whole entry, looked up): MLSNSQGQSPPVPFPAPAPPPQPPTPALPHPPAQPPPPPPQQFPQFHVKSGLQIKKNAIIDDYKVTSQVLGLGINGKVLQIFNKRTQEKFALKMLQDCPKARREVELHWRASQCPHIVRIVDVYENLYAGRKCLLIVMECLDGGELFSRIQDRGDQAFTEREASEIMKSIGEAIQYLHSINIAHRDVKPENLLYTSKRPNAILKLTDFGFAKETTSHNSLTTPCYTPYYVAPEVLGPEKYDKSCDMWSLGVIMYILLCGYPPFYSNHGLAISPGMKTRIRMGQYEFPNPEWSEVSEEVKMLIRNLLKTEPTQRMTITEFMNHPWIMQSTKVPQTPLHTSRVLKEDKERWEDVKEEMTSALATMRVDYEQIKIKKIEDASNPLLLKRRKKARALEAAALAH

[22] = target: Serine/threonine-protein kinase MARK2 (Homo sapiens) (UniProt Q7KZI7); details: Compound concentration 100.0 nM
[23] = target: Tyrosine-protein kinase Mer (Homo sapiens) (UniProt Q12866); details: Compound concentration 100.0 nM
Tyrosine-protein kinase Mer (Homo sapiens), sequence (Q12866 whole entry): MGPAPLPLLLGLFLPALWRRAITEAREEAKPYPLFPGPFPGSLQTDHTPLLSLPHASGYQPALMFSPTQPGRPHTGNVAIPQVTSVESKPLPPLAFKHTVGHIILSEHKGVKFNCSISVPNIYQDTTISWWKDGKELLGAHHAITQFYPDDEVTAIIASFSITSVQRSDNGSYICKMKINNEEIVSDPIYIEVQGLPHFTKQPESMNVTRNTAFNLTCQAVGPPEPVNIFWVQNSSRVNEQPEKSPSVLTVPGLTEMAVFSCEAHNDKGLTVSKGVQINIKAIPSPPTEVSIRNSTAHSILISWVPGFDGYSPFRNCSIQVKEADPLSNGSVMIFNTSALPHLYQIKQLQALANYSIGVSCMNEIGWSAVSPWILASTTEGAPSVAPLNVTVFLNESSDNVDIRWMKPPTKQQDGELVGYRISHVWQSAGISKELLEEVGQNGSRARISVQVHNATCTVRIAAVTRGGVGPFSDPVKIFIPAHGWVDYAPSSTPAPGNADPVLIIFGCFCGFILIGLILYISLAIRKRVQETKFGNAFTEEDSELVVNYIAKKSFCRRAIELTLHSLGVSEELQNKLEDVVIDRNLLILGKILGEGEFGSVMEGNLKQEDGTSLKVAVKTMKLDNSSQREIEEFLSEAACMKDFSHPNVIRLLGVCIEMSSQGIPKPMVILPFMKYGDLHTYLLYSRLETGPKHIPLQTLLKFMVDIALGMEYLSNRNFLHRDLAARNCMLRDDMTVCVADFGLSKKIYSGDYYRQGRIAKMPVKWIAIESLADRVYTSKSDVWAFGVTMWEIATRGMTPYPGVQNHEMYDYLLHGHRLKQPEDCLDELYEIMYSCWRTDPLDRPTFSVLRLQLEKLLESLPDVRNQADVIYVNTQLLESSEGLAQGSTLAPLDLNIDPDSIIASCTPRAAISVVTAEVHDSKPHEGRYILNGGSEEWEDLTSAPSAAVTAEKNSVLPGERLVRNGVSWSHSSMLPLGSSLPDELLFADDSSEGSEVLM

[24] = target: Serine/threonine-protein kinase Nek3 (Homo sapiens) (UniProt P51956); details: Compound concentration 100.0 nM
Serine/threonine-protein kinase Nek3 (Homo sapiens), sequence (P51956 whole entry): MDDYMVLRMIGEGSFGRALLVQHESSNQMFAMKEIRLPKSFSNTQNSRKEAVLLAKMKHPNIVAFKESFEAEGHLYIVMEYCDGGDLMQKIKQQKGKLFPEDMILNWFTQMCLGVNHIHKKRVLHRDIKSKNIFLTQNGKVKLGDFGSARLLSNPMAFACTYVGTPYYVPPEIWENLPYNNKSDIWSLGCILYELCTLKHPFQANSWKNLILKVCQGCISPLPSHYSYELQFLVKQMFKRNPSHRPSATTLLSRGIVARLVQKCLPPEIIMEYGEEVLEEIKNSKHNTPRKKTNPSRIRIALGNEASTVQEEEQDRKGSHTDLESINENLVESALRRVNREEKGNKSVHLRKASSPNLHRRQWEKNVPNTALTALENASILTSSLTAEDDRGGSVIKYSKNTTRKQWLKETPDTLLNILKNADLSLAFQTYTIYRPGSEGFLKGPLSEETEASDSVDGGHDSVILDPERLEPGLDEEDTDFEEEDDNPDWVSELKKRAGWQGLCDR

[25] = target: Serine/threonine-protein kinase NLK (Homo sapiens) (UniProt Q9UBE8); details: Compound concentration 100.0 nM
[26] = target: Mitogen-activated protein kinase 11 (Homo sapiens) (UniProt Q15759); details: Compound concentration 100.0 nM
[27] = target: Cyclin-dependent kinase 15 (Homo sapiens) (UniProt Q96Q40); details: Compound concentration 100.0 nM
[28] = target: Protein-tyrosine kinase 2-beta (Homo sapiens) (UniProt Q14289); details: Compound concentration 100.0 nM
[29] = target: Uncharacterized serine/threonine-protein kinase SBK3 (Homo sapiens) (UniProt P0C264); details: Compound concentration 100.0 nM
Uncharacterized serine/threonine-protein kinase SBK3 (Homo sapiens), sequence (P0C264 whole entry): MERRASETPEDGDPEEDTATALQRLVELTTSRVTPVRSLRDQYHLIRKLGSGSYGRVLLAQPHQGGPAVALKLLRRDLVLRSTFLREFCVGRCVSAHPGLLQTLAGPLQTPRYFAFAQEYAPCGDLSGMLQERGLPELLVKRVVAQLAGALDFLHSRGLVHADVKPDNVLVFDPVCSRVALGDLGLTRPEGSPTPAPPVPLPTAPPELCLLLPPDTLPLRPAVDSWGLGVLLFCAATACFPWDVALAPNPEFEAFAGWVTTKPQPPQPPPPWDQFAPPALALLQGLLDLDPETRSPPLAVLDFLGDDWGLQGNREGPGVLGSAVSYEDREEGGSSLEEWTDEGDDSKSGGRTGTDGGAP

[30] = target: Serine/threonine-protein kinase SIK2 (Homo sapiens) (UniProt Q9H0K1); details: Compound concentration 100.0 nM
[31] = target: Angiopoietin-1 receptor (Homo sapiens) (UniProt Q02763); details: Compound concentration 100.0 nM
[32] = target: Serine/threonine-protein kinase tousled-like 2 (Homo sapiens) (UniProt Q86UE8); details: Compound concentration 100.0 nM
[33] = target: Serine/threonine-protein kinase 32A (Homo sapiens) (UniProt Q8WU08); details: Compound concentration 100.0 nM
[34] = target: Serine/threonine-protein kinase 32B (Homo sapiens) (UniProt Q9NY57); details: Compound concentration 100.0 nM
[35] = target: Serine/threonine-protein kinase 32C (Homo sapiens) (UniProt Q86UX6); details: Compound concentration 100.0 nM
[36] = target: Mitogen-activated protein kinase kinase kinase 19 (Homo sapiens) (UniProt Q56UN5); details: Compound concentration 100.0 nM
[37] = target: 5-hydroxytryptamine receptor 6 (Homo sapiens) (UniProt P50406); details: Compound concentration 10.0 uM
[38] = target: T1, Muscarinic acetylcholine receptor M2 (Homo sapiens) (UniProt P08172); details: Compound concentration 10.0 uM
T1 sequence (whole entry): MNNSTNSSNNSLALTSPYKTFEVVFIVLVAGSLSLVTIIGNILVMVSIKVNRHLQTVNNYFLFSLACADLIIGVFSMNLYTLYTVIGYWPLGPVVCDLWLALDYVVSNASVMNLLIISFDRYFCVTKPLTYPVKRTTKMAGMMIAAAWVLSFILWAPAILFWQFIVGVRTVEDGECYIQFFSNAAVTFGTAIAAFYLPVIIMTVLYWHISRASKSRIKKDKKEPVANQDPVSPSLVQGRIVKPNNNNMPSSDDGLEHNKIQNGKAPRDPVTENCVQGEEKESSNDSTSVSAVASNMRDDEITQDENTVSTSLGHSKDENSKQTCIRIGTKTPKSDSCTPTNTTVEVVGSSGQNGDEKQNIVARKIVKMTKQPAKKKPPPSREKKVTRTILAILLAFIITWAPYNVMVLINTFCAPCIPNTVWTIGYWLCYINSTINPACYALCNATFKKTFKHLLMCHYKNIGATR

[39] = target: Sigma non-opioid intracellular receptor 1 (Homo sapiens) (UniProt Q99720); details: Compound concentration 10.0 uM
Sigma non-opioid intracellular receptor 1 (Homo sapiens), sequence (Q99720 whole entry): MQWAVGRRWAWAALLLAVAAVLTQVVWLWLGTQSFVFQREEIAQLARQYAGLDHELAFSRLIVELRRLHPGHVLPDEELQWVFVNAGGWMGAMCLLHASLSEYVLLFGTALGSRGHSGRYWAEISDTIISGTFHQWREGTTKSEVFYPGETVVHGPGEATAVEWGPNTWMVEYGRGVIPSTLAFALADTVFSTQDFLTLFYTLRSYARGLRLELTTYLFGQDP

AP2-associated protein kinase 1 (Homo sapiens), sequence (Q2M2I8 whole entry, looked up): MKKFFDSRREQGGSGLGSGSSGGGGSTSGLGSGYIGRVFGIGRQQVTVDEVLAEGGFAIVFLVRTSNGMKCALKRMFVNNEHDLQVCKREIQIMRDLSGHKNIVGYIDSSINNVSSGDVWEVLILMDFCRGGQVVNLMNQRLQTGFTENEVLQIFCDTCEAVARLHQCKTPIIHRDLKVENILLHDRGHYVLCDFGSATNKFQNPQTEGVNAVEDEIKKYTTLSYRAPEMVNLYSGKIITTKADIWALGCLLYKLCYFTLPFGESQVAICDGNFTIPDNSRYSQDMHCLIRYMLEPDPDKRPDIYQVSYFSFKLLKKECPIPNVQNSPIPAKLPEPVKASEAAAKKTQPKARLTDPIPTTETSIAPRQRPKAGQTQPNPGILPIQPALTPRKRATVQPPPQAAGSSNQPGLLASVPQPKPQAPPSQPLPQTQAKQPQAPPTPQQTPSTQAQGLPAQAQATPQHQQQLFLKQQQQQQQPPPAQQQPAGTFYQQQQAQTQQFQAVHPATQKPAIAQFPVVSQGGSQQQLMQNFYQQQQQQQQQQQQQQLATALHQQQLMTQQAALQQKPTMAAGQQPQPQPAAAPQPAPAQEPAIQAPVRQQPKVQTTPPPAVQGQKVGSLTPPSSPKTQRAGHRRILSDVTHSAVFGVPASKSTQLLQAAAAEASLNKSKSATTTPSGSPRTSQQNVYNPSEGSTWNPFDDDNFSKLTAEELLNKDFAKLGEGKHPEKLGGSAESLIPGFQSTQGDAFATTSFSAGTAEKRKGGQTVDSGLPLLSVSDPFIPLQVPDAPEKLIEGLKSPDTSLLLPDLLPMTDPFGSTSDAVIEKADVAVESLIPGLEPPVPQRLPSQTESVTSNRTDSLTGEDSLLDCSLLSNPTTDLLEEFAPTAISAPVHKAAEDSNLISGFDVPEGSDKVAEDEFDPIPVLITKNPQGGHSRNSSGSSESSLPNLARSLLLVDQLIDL

## CC(C)CC(=O)N1CCc2nc(-c3ccc(Br)cc3)nc(N(C)Cc3ccccc3)c2C1 [THPP-1-NC]
[1]
  Ki: > 100 µM (not active)
[2]
  residual activity: 100%
[3]
  residual activity: 97%
[4]
  residual activity: 100%
[5]
  residual activity: 100%
[6]
  residual activity: 100%
[7]
  residual activity: 100%
[8]
  residual activity: 85%
[9]
  residual activity: 82%
[10]
  residual activity: 100%
[11]
  residual activity: 100%
[12]
  residual activity: 100%
[13]
  residual activity: 82%
[14]
  residual activity: 100%
[15]
  residual activity: 100%
[16]
  residual activity: 100%
[17]
  residual activity: 100%
[18]
  residual activity: 71%
[19]
  residual activity: 100%
[20]
  residual activity: 100%
[21]
  residual activity: 92%
[22]
  residual activity: 100%
[23]
  residual activity: 100%
[24]
  residual activity: 100%
[25]
  residual activity: 100%
[26]
  residual activity: 100%
[27]
  residual activity: 100%
[28]
  residual activity: 100%
[29]
  residual activity: 100%
[30]
  residual activity: 100%
[31]
  residual activity: 100%
[32]
  residual activity: 100%
[33]
  residual activity: 94%
[34]
  residual activity: 87%
[35]
  residual activity: 98%
[36]
  residual activity: 100%
[37]
  inhibition: 0.81%
[38]
  inhibition: 18.2%
[39]
  inhibition: 49.4%

## COCCOc1nc(-c2ccc(Cl)nc2)nc2c1CN(C(=O)c1ncn3ccccc13)CC2 [THPP-1]
[1]
  Ki: 1.2 µM (not active)
[2]
  residual activity: 100%
[3]
  residual activity: 93%
[4]
  residual activity: 100%
[5]
  residual activity: 100%
[6]
  residual activity: 100%
[7]
  residual activity: 100%
[8]
  residual activity: 96%
[9]
  residual activity: 100%
[10]
  residual activity: 100%
[11]
  residual activity: 88%
[12]
  residual activity: 100%
[13]
  residual activity: 82%
[14]
  residual activity: 100%
[15]
  residual activity: 100%
[16]
  residual activity: 100%
[17]
  residual activity: 100%
[18]
  residual activity: 76%
[19]
  residual activity: 100%
[20]
  residual activity: 100%
[21]
  residual activity: 73%
[22]
  residual activity: 100%
[23]
  residual activity: 89%
[24]
  residual activity: 100%
[25]
  residual activity: 100%
[26]
  residual activity: 100%
[27]
  residual activity: 100%
[28]
  residual activity: 100%
[29]
  residual activity: 100%
[30]
  residual activity: 100%
[31]
  residual activity: 100%
[32]
  residual activity: 100%
[33]
  residual activity: 83%
[34]
  residual activity: 100%
[35]
  residual activity: 100%
[36]
  residual activity: 100%
[37]
  inhibition: -4.55%
[38]
  inhibition: 19.3%
[39]
  inhibition: 38.1%
